Molecules are shown by their SMILES.

One test addresses Prothrombin (Homo sapiens, UniProt P00734). The experiment in a line: Tested for inhibitory activity against Thrombin.
Test [1] can be described thus: Tested for inhibitory activity against elastase.

Turning to `CC(=O)OCC(=O)N1C(=O)C[C@@H]2[C@@H]1CCN2C(=O)OCc1ccccc1`, the values for the IC50 (at Prothrombin; in test [1]) were 6.2 µM and 7.58 µM, respectively.

Values taken from ChEMBL document CHEMBL1132953, “Design and synthesis of pyrrolidine-5,5-trans-lactams (5-oxo-hexahydro-pyrrolo[3,2-b]pyrroles) as novel mechanism-based inhibitors of human cytomegalovirus protease. 1. The alpha-methyl-trans-lactam template” (J Med Chem, 2000).
